Assay results taken from patent publication US9493438B2, “4,4-difluoro-piperidine-compounds” (ROTTAPHARM BIOTECH S.R.L., priority 2012, dated 2016).

Assays:
[1] = biological target: T1, human OX1 receptors (Homo sapiens, UniProt O43613); test: antagonistic activity against human OX1 receptor, [Ca2+]i fluorimetry in transfected CHO cells; type: cell-based; conditions: CHO cells transfected with human recombinant OX1; activated with orexin-A 3 nM; pKb = co-logarithm of apparent dissociation constant (modified Cheng Prusoff)
T1 construct: expressed in transfected cells; host or cells: CHO cells
T1 sequence (O43613 1-425): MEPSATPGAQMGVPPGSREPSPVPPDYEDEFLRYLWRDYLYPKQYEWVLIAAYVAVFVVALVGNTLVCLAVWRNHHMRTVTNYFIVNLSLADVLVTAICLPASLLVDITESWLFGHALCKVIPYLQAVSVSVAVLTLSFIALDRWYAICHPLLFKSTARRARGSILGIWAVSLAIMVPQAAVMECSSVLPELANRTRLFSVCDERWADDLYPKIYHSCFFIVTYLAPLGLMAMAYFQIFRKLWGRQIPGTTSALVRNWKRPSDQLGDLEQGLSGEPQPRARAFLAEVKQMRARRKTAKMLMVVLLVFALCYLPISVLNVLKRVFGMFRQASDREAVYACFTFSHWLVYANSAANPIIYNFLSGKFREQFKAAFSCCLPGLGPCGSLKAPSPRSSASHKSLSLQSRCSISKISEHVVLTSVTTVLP
Procedure: (§1) Thus the plate was loaded with the calcium dye (Fluo-4NW/probenecid in HBSS, Hepes 20 mM, pH 7.4; Invitrogen) at 37° C. for 60 min. Afterward the temperature was equilibrated at 22° C. for 15 min and the [Ca2+]i measured directly on the plate by using a fluorescent plate reader (CeliLux Perkin Elmer).
(§2) Invention compounds were dissolved in DMSO, diluted in HBSS (DMSO, 0.3% final) and added to the wells. After 5 min CHO cells were activated with orexin-A, 3 nM while HEK-293 cells were activated with orexin-B, 10 nM. […] The antagonistic activity has been expressed as pKb (co-logarithm of the apparent dissociation constant calculated by using the modified Cheng Prusoff equation). The results are expressed as percent of control specific […] response ((measured specific response/control specific agonist response)×100) obtained in the presence of the test compounds.
(§3) The IC50 values (concentration causing a half-maximal inhibition of the control specific agonist response) were determinated by non-linear regression analysis of the concentration curves generated with mean replicate values using hill equation curve fitting. The IC50 values are obtained by the arithmetical mean of at least two experiments.

[2] = biological target: T2, human OX2 receptors (Homo sapiens, UniProt O43614); test: antagonistic activity against human OX2 receptor, [Ca2+]i fluorimetry in transfected HEK-293 cells; type: cell-based; conditions: read-out: PKb OX2 (converted)
T2 construct: expressed in transfected cells; host or cells: HEK-293 cells
T2 sequence (O43614 1-444): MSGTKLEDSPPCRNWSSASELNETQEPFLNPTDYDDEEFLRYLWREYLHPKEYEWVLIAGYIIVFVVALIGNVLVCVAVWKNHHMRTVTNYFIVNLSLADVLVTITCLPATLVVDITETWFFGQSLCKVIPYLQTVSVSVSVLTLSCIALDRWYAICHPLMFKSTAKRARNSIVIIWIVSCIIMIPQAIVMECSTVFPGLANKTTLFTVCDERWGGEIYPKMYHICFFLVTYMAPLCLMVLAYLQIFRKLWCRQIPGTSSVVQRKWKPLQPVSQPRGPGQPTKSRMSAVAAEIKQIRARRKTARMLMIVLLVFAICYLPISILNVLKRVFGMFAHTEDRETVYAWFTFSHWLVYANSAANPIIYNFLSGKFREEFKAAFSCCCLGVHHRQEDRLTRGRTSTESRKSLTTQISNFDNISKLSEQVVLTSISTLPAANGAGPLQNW
Procedure: as §1, §2, §3

SMILES: COc1ccc(OC)c(C(=O)N2CCC(F)(F)CC2CNc2ccc(Cl)cn2)c1 (racemic) [Compound 11, (RS)(2-(((5-chloropyridin-2-yl)amino)methyl)-4,4-difluoropiperidin-1-yl)(2,5-dimethoxyphenyl)methanone]
- Kb [1]: 7.94 nM
- Kb [2]: 10000 nM

SMILES: Cc1ccc(-c2ccccc2)c(C(=O)N2CCC(F)(F)CC2CNc2ccc(C(F)(F)F)cn2)n1 (single isomer, unassigned; isomer b) [Compound 38, (4,4-difluoro-2-(((5-(trifluoromethyl)pyridin-2-yl)amino)methyl)piperidin-1-yl)(6-methyl-3-phenylpyridin-2-yl)methanone (isomer B)]
- Kb [1]: 3.16 nM
- Kb [2]: 126 nM

SMILES: Cc1ccc(-n2nccn2)c(C(=O)N2CCC(F)(F)CC2CNc2nc(C)cc(C)n2)c1 (single isomer, unassigned; isomer a) [Compound 4, (2-(((4,6-dimethylpyrimidin-2-yl)amino)methyl)-4,4-difluoropiperidin-1-yl)(5-methyl-2-(2H-1,2,3-triazol-2-yl)phenyl)methanone (isomer A)]
- Kb [1]: 2.51 nM
- Kb [2]: 200 nM

SMILES: Cc1ccc(OCc2ccccc2)c(C(=O)N2CCC(F)(F)CC2CNc2ccc(C(F)(F)F)cn2)n1 (racemic) [Compound 47, (RS)(3-(benzyloxy)-6-methylpyridin-2-yl)(4,4-difluoro-2-(((5-(trifluoromethyl)pyridin-2-yl)amino)methyl)piperidin-1-yl)methanone]
- Kb [1]: 12.6 nM
- Kb [2]: 10000 nM

SMILES: Cc1ccc(-c2ccccc2)c(C(=O)N2CCC(F)(F)CC2CNc2cnc(C(F)(F)F)cn2)n1 (racemic) [Compound 43]
- Kb [1]: 3.16 nM
- Kb [2]: 10000 nM

SMILES: Cc1ccc(-c2ncccn2)c(C(=O)N2CCC(F)(F)CC2CNc2ccc(C(F)(F)F)cn2)n1 (single isomer, unassigned; isomer a) [Compound 20, (4,4-difluoro-2-(((5-(trifluoromethyl)pyridin-2-yl)amino)methyl)piperidin-1-yl)(6-methyl-3-(pyrimidin-2-yl)pyridin-2-yl)methanone (isomer A)]
- Kb [1]: 0.794 nM
- Kb [2]: 316 nM

SMILES: O=C(c1nccc2ccccc12)N1CCC(F)(F)CC1CNc1ccc(C(F)(F)F)cn1 (single isomer, unassigned; isomer a) [Compound 41, (4,4-difluoro-2-(((5-(trifluoromethyl)pyridin-2-yl)amino)methyl)piperidin-1-yl)(isoquinolin-1-yl)methanone (isomer A)]
- Kb [1]: 1.58 nM
- Kb [2]: 10000 nM

SMILES: Cc1ccc(OCC2CC2)c(C(=O)N2CCC(F)(F)C[C@H]2CNc2ccc(C(F)(F)F)cn2)n1 [Compound 46, (S)(3-(cyclopropylmethoxy)-6-methylpyridin-2-yl)(4,4-difluoro-2-(((5-(trifluoromethyl)pyridin-2-yl)amino)methyl)piperidin-1-yl)methanone]
- Kb [1]: 15.8 nM
- Kb [2]: 10000 nM

SMILES: Cc1ccc(-c2ncccn2)c(C(=O)N2CCC(F)(F)CC2CNc2ncc(C(F)(F)F)cc2F)n1 (single isomer, unassigned; isomer a) [Compound 32, (4,4-difluoro-2-(((3-fluoro-5-(trifluoromethyl)pyridin-2-yl)amino)methyl)piperidin-1-yl)(6-methyl-3-(pyrimidin-2-yl)pyridin-2-yl)methanone (isomer A)]
- Kb [1]: 2.51 nM
- Kb [2]: 10000 nM

SMILES: Cc1ccc(-c2ccccn2)c(C(=O)N2CCC(F)(F)CC2CNc2ccc(C(F)(F)F)cn2)n1 (racemic) [Compound 53, (RS)(4,4-difluoro-2-(((5-(trifluoromethyl)pyridin-2-yl)amino)methyl)piperidin-1-yl)(6′-methyl-[2,3′-bipyridin]-2′-yl)methanone]
- Kb [1]: 15.8 nM
- Kb [2]: 10000 nM

SMILES: O=C(c1ncccc1-c1ccccc1)N1CCC(F)(F)CC1CNc1ccc(C(F)(F)F)cn1 (racemic) [Compound 51, (RS)(4,4-difluoro-2-((5-(trifluoromethylpyridin-2-yl)amino)methyl)piperidin-1-yl)(3-phenylpyridin-2-yl)methanone]
- Kb [1]: 6.31 nM
- Kb [2]: 10000 nM

SMILES: O=C(c1cccc2cccnc12)N1CCC(F)(F)CC1CNc1ccc(Cl)cn1 (single isomer, unassigned; isomer a) [Compound 26, (2-(((5-chloropyridin-2-yl)amino)methyl)-4,4-difluoropiperidin-1-yl)(quinolin-8-yl)methanone (isomer A)]
- Kb [1]: 1.58 nM
- Kb [2]: 10000 nM

SMILES: CN(C)c1ccc(-c2ccccc2)c(C(=O)N2CCC(F)(F)CC2CNc2ccc(Cl)cn2)c1 (racemic) [Compound 18, (RS)(2-(((5-chloropyridin-2-yl)amino)methyl)-4,4-difluoropiperidin-1-yl)(4-(dimethylamino)-[1,1′-biphenyl]-2-yl)methanone]
- Kb [1]: 31.6 nM
- Kb [2]: 1000 nM

SMILES: Cc1ccc(OCC2CC2)c(C(=O)N2CCC(F)(F)CC2CNc2ccc(C(F)(F)F)cn2)n1 (racemic) [Compound 45, (RS)(3-(cyclopropylmethoxy)-6-methylpyridin-2-yl)(4,4-difluoro-2-(((5-(trifluoromethyl)pyridin-2-yl)amino)methyl)piperidin-1-yl)methanone]
- Kb [1]: 3.98 nM
- Kb [2]: 10000 nM

SMILES: O=C(c1cccc2cccnc12)N1CCC(F)(F)CC1CNc1ccc(Cl)cn1 (racemic) [Compound 25, (RS)(2-(((5-chloropyridin-2-yl)amino)methyl)-4,4-difluoropiperidin-1-yl)(quinolin-8-yl)methanone]
- Kb [1]: 0.794 nM
- Kb [2]: 10000 nM

SMILES: N#Cc1ccc(-c2ncccn2)c(C(=O)N2CCC(F)(F)CC2CNc2ccc(Cl)cn2)c1 (racemic) [Compound 27, (RS)3-(2-(((5-chloropyridin-2-yl)amino)methyl)-4,4-difluoropiperidin-1-carbonyl)-4-(pyrimidin-2-yl)benzonitrile]
- Kb [1]: 1.58 nM
- Kb [2]: 10000 nM

SMILES: O=C(c1nccc2ccccc12)N1CCC(F)(F)CC1CNc1ccc(Cl)cn1 (single isomer, unassigned; isomer b) [Compound 24, (2-(((5-chloropyridin-2-yl)amino)methyl)-4,4-difluoropiperidin-1-yl)(isoquinolin-1-yl)methanone (isomer B)]
- Kb [1]: 1 nM
- Kb [2]: 10000 nM

SMILES: O=C(c1nc(C(F)(F)F)ccc1-c1ncccn1)N1CCC(F)(F)CC1CNc1ccc(C(F)(F)F)cn1 (racemic) [Compound 39, (RS)(4,4-difluoro-2-(((5-(trifluoromethyl)pyridin-2-yl)amino)methyl)piperidin-1-yl)(3-(pyrimidin-2-yl)-6-(trifluoromethyl)pyridin-2-yl)methanone]
- Kb [1]: 31.6 nM
- Kb [2]: 10000 nM

SMILES: Cc1ccc(-c2ncccn2)c(C(=O)N2CCC(F)(F)CC2CNc2ccc(Cl)cn2)n1 (single isomer, unassigned; isomer a) [Compound 16, (2-(((5-chloropyridin-2-yl)amino)methyl)-4,4-difluoropiperidin-1-yl)(6-methyl-3-(pyrimidin-2-yl)pyridin-2-yl)methanone (isomer A)]
- Kb [1]: 0.631 nM
- Kb [2]: 10000 nM

SMILES: Cc1cnc(-c2ncccn2)c(C(=O)N2CCC(F)(F)CC2CNc2ccc(Cl)cn2)c1 (racemic) [Compound 15, (RS)(2-(((5-chloropyridin-2-yl)amino)methyl)-4,4-difluoropiperidin-1-yl)(5-methyl-2-(pyrimidin-2-yl)pyridin-3-yl)methanone]
- Kb [1]: 126 nM

SMILES: O=C(c1ncccc1-c1ncccn1)N1CCC(F)(F)CC1CNc1ccc(C(F)(F)F)cn1 (racemic) [Compound 54, (RS) (4,4-difluoro-2-(((5-(trifluoromethyl)pyridin-2-yl)amino)methyl)piperidin-1-yl)(3-(pyrimidin-2-yl)pyridin-2-yl)methanone]
- Kb [1]: 3.16 nM

SMILES: O=C(c1ccccc1OCc1ccccc1)N1CCC(F)(F)CC1CNc1ccc(Cl)cn1 (racemic) [Compound 21, (RS)(2-(benzyloxy)phenyl)(2-(((5-chloropyridin-2-yl)amino)methyl)-4,4-difluoropiperidin-1-yl)methanone]
- Kb [1]: 5.01 nM
